# Measured values: publication PMC7046293, “Parallel quorum-sensing system in Vibrio cholerae prevents signal interference inside the host” (PLoS Pathogens, 2020)
# Target: T1, CqsR-LBD (Vibrio cholerae, UniProt Q9KR16)
# T1 construct: gene VC_1831; pET28B His6 tag kept; E. coli BL21(DE3)
# Experiment: differential scanning fluorimetry (SYPRO Orange)
# Format: binding
# Settings: 10 mM ligand; 10 μM protein; PBS pH 7.5, 10% glycerol; Tm without ligand 46 °C
# Excerpt: differential scanning fluorimetry (SYPRO Orange) on CqsR-LBD
row,SMILES,Tm (°C)^b
1,"C[C@H](N)CO [L-alaninol, (S)-(+)-2-Amino-1-propanol]",60 °C
2,"NC(CO)CO [Serinol, 2-Amino-1,3-propanediol]",53.67 [0.58]
